Experimental data: PubChem BioAssay AID1324 (NMMLSC, 2008)
Active and inactive are the calls of the source. No rule for the calls is given here.

Biological target: glutathione S-transferase (GST-GSH binding)
Test: GST–glutathione interaction disruption – biochemical, multiplex beads, flow cytometry, HPSMTB buffer, profiling panel (AID 1324);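 also: glutathione beads loaded with GST-green fluorescent protein and no fluorescent Bim peptide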
Conditions: multiplex bead flow cytometry, MCF; for percent span inhibition: hits give high values, concentration not given here

SMILES	percent span inhibition	EC50
COc1ccc(CCNC(=O)c2ccc3nc(-c4ccco4)c(-c4ccco4)nc3c2)cc1OC	inactive	–
O=C(OCc1cnc(Cl)s1)c1cccc(Cl)c1Cl	inactive	–
CCc1ccc(/C=C/C(=O)c2cc(Br)ccc(=O)c2O)cc1	inactive	–
S=C1NC2=C(CCC/C2=C\c2ccccc2)C(c2ccccc2)N1 (stereo not drawn)	inactive	–
CCC(=O)NC(c1ccc(C)cc1)c1cc([N+](=O)[O-])c2cccnc2c1O (stereo not drawn)	inactive	–
Cc1cc(C)nc(SCc2cc(=O)c(OC(=O)c3cccc([N+](=O)[O-])c3)co2)n1	inactive	–
O=C1C(Cl)=C(N2CCN(c3ccccc3[N+](=O)[O-])CC2)C(=O)c2ccccc21	inactive	–
Cc1cc(-c2cc(-c3ccc(Cl)cc3)nc(N)c2C#N)co1	inactive	–
CC(C)(C)OC(=O)N1CCN(C(=O)[C@H](Cc2ccc(O)cc2)n2cc(CCO)nn2)CC1	inactive	–
Cc1ccc(N=Cc2c(O)n(-c3ccc4c(c3)OCO4)c(=O)c3ccccc23)cc1	inactive	–
CCNC(=S)Nc1ccc(OCC)cc1	inactive	–
CNC(=O)c1c(N)sc2c1CCCCC2	inactive	–
Cn1cccc1CC(=O)N/N=C\c1ccccc1	inactive	–
Cc1ccc(-c2cc(-c3ccc(Cl)cc3)c(C#N)c(N)n2)o1	inactive	–
CCOC(=O)c1ccc(N=c2ssnc2Cl)cc1	inactive	–
COc1ccc(S(=O)(=O)NCCOc2cccc3cccnc23)cc1OC	inactive	–
CC1Nc2ccccc2C(=O)N1NS(C)(=O)=O (stereo not drawn)	inactive	–
CCN(CC)c1ccc(NC(=O)c2ccccc2)cc1S(=O)(=O)Nc1ccccc1OC	inactive	–
Cc1ccnc(Nc2nc(-c3c(C)nc4sccn34)cs2)c1	–	inactive
CCOc1ccc(C(=O)Nc2nnn(CC)n2)cc1	inactive	–
CNC(=S)N/N=C/C1=CCC2CC1C2(C)C (stereo not drawn)	inactive	–
O=C(Cn1c2ccccc2c(=O)c2ccccc21)N/N=C/c1ccc(N2CCCC2)c([N+](=O)[O-])c1	inactive	–
CN(Cc1ccccc1)c1nc2c(c(=O)[nH]c(=O)n2C)n1C	inactive	–
CN=C(NC1CCCCC1)c1ccc(Cl)cc1	inactive	–
c1ccc(C2=Nc3cccc4cccc(c34)N2)cc1	inactive	–

SMILES	percent span inhibition	EC50
Nc1ccc(N2CCCCCC2)cc1	inactive	–
CC(C)CCN1CCN(Cc2cccc3cccnc23)CC1CCO (stereo not drawn)	inactive	–
Cc1cc(N/C(=N/S(=O)(=O)c2cc(F)ccc2F)c2ccccc2)n(-c2ccccc2)n1	inactive	–
CCOc1cccc(CNc2ccc(O)cc2)c1OCc1ccccc1Cl	inactive	–
CCN1/C(=C/C(C)=C/c2sc3ccccc3[n+]2CC)Sc2ccccc21	inactive	–
CC1=CC(=O)c2ccccc2C1=O	inactive	–
O=C(NC1=C(Nc2ccc(Cl)cc2)C(=O)c2ccccc2C1=O)c1ccccc1	inactive	–
COCCn1nnnc1CN(Cc1ccco1)Cc1cc2cc3c(cc2[nH]c1=O)OCO3	inactive	–
O=C(Nc1ccc2nc(-c3ccco3)c(-c3ccco3)nc2c1)NC1CC1	–	8.3 µM
CCn1c(SCC(=O)Nc2ccc(C)cc2)nnc1-c1ccc(O)cc1	inactive	–
COc1ccc(C2=Nc3cccc4cccc(c34)N2)cc1	inactive	–
COc1cc(NC(=S)NCCCO)c(OC)cc1Cl	inactive	–
Cc1ccc(C(=O)C(C(=O)/C=C/c2ccccc2)=C2SCCCS2)cc1	inactive	–
COc1ccc(NC(=O)c2ccc(CN3CCN(c4ccccc4)CC3)cc2)cc1	inactive	–
O=C(O)c1ccc(NC2=C/C(=N/S(=O)(=O)c3ccccc3)c3ccccc3C2=O)cc1	inactive	–
COc1cc(/C=C2\CC/C(=C\c3cc(OC)c(O)c(OC)c3)C2=O)cc(OC)c1O	inactive	–
CCOc1cc(S(=O)(=O)N2CCCCC2)ccc1F	inactive	–
CNCc1ccccc1Sc1ccc(O)c(O)c1	inactive	–
CC1=CC(=O)c2c(O)ccc(O)c2C1=O	–	inactive
Nc1c(C(=O)NC2CC2)sc2nc3c(c(-c4ccco4)c12)CC/C3=C/c1ccco1	inactive	–
COc1cccc(/C=N/Nc2nn3cnnc3c3ccccc23)c1O	inactive	–
COc1cccc2c(SCC(=O)N/N=C/c3ccccc3)cc(C)nc12	inactive	–
COc1c(F)c(F)c(C(=O)Nc2ccccc2N2CCN(C(=O)C(C)C)CC2)c(F)c1F	inactive	–
Cn1c(CCNC(=O)C2CCCCC2)nc2cc(NC(=O)c3cccs3)ccc21	inactive	–
CCCCN(C(=O)CCC(=O)Nc1cc(C)on1)C(C(=O)NC(C)(C)C)c1cccc(OC)c1OC (stereo not drawn)	inactive	–

SMILES	percent span inhibition	EC50
COc1cc(/C=C2/NC(=O)N(Cc3ccccc3F)C2=O)ccc1O	inactive	–
Nc1c(C(=O)NCc2ccco2)sc2nc3c(cc12)C(=O)CCC3	inactive	–
O=C(NC1=C(Nc2ccc(F)cc2)C(=O)c2ccccc2C1=O)c1ccc(Cl)cc1	inactive	–
O=C(COCC(=O)NCc1ccccc1)NCc1ccccc1	inactive	–
Cc1ccc(-c2cc(C(=O)Nc3cccnc3)c3ccccc3n2)o1	inactive	–
CCOc1ccc(-n2cc(-c3ccc(OC)c(OC)c3)[nH]c2=S)cc1	inactive	–
CC1(C)SC(=S)N(NC(=O)Nc2ccccc2)C1N(O)C(=O)Nc1cccc2ccccc12 (stereo not drawn)	inactive	–
COc1ccc(C(=O)Nc2ccc(C(=O)OCC(=O)c3cccc4ccccc34)cc2)cc1	inactive	–
CCOC(=O)CSC1=NC(=O)/C(=C\c2ccc(OC(C)=O)cc2)S1	inactive	–
Cc1cc(NC(=O)CCSc2ccccc2)ccc1Br	inactive	–
CCOC(=O)c1c2c3c(cccc3[nH]c1=O)C(=O)c1ccccc1-2	–	inactive
c1ccc(-c2nc(N3CCOCC3)s[n+]2-c2ccccc2)cc1	inactive	–
CCN1CCN(c2cc(C)c3cc(NC(=S)N4CCCCC4)ccc3n2)CC1	inactive	–
Clc1nssc1=Nc1ccccc1	inactive	–
CC1CC2=C(NC(=S)NC2c2cccc(F)c2)/C(=C/c2cccc(F)c2)C1 (stereo not drawn)	inactive	–
COc1cccc(C(=O)/C=C/Nc2ccc(S(=O)(=O)Nc3onc(C)c3C)cc2)c1	inactive	–
CCc1cccc(CC)c1NC(=S)N1CCn2cccc2C1c1cccnc1 (stereo not drawn)	inactive	–
O=C1/C(=C\c2ccco2)NC(=S)N1c1ccccc1	inactive	–
Cc1onc(-c2ccccc2Cl)c1C(=O)Nc1nn[nH]n1	inactive	–
COc1cc2[nH]c(=S)nc(NCC3CCCO3)c2cc1OC (stereo not drawn)	–	inactive
Cc1csc(SCCn2c(N3CCN(c4ccccc4)CC3)nc3c2c(=O)[nH]c(=O)n3C)n1	inactive	–
Cc1nnc(NCc2n[nH]c(=O)c3ccccc23)c2ccccc12	inactive	–
COc1ccc(OC)c(NC(=O)COC(=O)c2cc3c(s2)CCC3)c1	inactive	–
